Reference: PMC7069095, “A cell-permeable peptide-based PROTAC against the oncoprotein CREPT proficiently inhibits pancreatic cancer” (Theranostics, 2020)
Entries after “also recorded” stand apart in the source; their conditions may differ. Non-standard residues stand in square brackets, D forms with d. Residues, ends and D or L forms follow the SMILES beside them. Hyp = O=C(O)[C@@H]1C[C@@H](O)CN1; Ahx = NCCCCCC(=O)O

What was measured:
Assay type in all cases: cell-based
[1] = system: Panc-1 cells; experiment: Flow cytometry, entry of FITC-labeled peptides into cells; conditions: conclusion from flow cytometry of FITC-labeled peptides in pancreatic cancer cells
Method: To examine whether PRTC could permeate into pancreatic cancer cells, we synthesized fluorescein isothiocyanate (FITC) labeled PRTC, PRTC-m, PRTC-v, PRTC-r (PRTC without RRRRK) as well as TAT (a widely used cell penetrating peptide, as a positive control).
Figure 3 Identification of the permeability of PRTC in Panc-1 cells. (A) Entry of FITC- labeled peptides into Panc-1 cells tested by flow cytometry. FITC-TAT is the positive control. Measurements were performed in triplicate. (B) Quantification of cellular uptake of Panc-1 cells treated with different concentrations of FITC-PRTC. (C) Confocal microscope images of Panc-1 cells treated with 10 μM FITC labeled peptides. Scale bars, 10 μm. (D) Confocal microscope images of Panc-1 cells treated with different dosages of FITC-PRTC. Scale bars, 10 μm.

[2] = biological target: T1, endogenous CREPT protein in AsPc-1 cells (Homo sapiens, UniProt Q9NQG5); experiment: Western blot of endogenous CREPT (degradation); conditions: 24 h incubation
T1 construct: endogenous protein level of CREPT in Panc-1, AsPc-1 and MIA-PaCa-2 cells; endogenous in cells; host or cells: Panc-1, AsPc-1, MIA PaCa-2
T1 sequence (Q9NQG5 1-326): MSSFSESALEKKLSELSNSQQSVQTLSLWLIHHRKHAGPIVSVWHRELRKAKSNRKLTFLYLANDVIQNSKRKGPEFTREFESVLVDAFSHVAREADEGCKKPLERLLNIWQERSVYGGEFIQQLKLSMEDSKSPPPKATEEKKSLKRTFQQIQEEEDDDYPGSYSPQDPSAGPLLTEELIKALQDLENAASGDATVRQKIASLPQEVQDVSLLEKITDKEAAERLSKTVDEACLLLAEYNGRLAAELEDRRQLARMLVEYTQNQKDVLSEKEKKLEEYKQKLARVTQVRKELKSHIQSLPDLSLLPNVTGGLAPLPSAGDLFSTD
Method: (§1) For exogenous immunoprecipitation assays, HEK293T cells were plated in 60 mm dishes and then transfected with the indicated plasmids. After 24 h, cells were harvested using RIPA buffer (50 mM Tris-HCl pH 8.0, 2 mM EDTA pH 8.0, 150 mM NaCl, 1% NP-40, 0.5% sodium deoxycholate, 0.1% SDS) with mixed protease inhibitors. Cell lysates were incubated with 2 μg of the indicated antibodies and 30 μL of protein A/G-Sepharose beads at 4 °C overnight. Beads were eluted five times with lysis buffer (50 mM Tris-HCl pH 7.6, 1 mM EDTA pH 8.0, 165 mM NaCl, 0.5% NP-40), and thereafter, a western blot assay was performed to analyze the association by using the indicated antibodies. Western blot was performed as previously reported. Anti-β-actin and anti-Flag antibodies were purchased from Sigma. Anti-Myc antibody was purchased from Santa Cruz Biotechnology. Antibody against CREPT was produced in the laboratory.
(§2) To address whether PRTC could induce CREPT degradation, we examined the endogenous protein level of CREPT in Panc-1, AsPc-1 and MIA-PaCa-2 cells in the presence of different dosages of PRTC. […] Consistently, treatment with PRTC led to decreases in CREPT protein at different times (Figure 5B, S3A). […] To further visualize the degradation process, we stained the endogenous CREPT protein with an antibody against CREPT in the cells treated with FITC-labeled PRTC.
(§3) Figure S3. PRTC induces CREPT degradation. […]

[3] = biological target: T2, endogenous CREPT protein in MIA PaCa-2 cells (Homo sapiens, UniProt Q9NQG5); experiment: Western blot of endogenous CREPT (degradation); conditions: 24 h incubation
T2 construct: endogenous protein level of CREPT in Panc-1, AsPc-1 and MIA-PaCa-2 cells; endogenous in cells; host or cells: Panc-1, AsPc-1, MIA PaCa-2
T2 sequence (Q9NQG5 1-326): T1 sequence (Q9NQG5 1-326)
Method: as §1, §2, §3

[4] = system: Panc-1 cells; experiment: Cell viability assay (CCK-8); conditions: 10 μM, CCK-8, OD450, three individual experiments
Method: (§4) Cells were seeded into 96-well plates (1000 cells per well) and cultured for the indicated times. Cell viability was evaluated using a CCK-8 kit (Solarbio, Beijing, China). The value of OD450 was calculated by spectrophotometer and presented as the mean ± standard deviation (SD) from three individual experiments.

[5] = system: HPDE6-C7 cells; experiment: Cell proliferation assay; conditions: little CREPT expression
Method: as §4, with “experiments. […]” for “experiments.”
(H) Cell proliferation assay of
HPDE6-C7 cells. […] HPDE6-C7
(§5) is anormal pancreatic epithelial cell line.
(§6) (1 picture or pasted object on this page, not shown here)

[6] = system: AsPc-1 cells; experiment: Colony formation; conditions: 10 μM, 500 cells per well, 8 days, than the control cells
Method: (§7) Cells were seeded into 6-well plates (500 cells per well) and cultured for 10 days, then washed with PBS and stained with 0.1% crystal violet. The number of colonies was counted by ImageJ and presented as the mean ± standard deviation (SD) from three individual experiments. […]
(§8) tumorigenesis in AsPc-1 and MIA PaCa-2 cells. (A-B) Colony formation of AsPc-1 respectively treated with deionized H2O (Ctrl), 10 μM PRTC, 10 μM PRTC-m and 10 μM PRTC-v. Cells were seeded into 6-well plates (500 cells per well) and cultured for 8 days.(C) CellproliferationassayofAsPc-1cellstreatedwith deionizedwater(Ctrl), 10μMPRTC,10μM PRTC-m and 10 μM PRTC-v.(D-E) Colony formation of MIA PaCa-2 respectively treated with deionized H2O (Ctrl), 10 μM PRTC, PRTC-m and PRTC-v.(F) Cell proliferation assay of MIA PaCa-2cells treatedwith deionizedH 2O(Ctrl),10μMPRTC, PRTC-mandPRTC-v. (G)Tumor volumesofxenografttumors,whichweremeasuredbycalipers. V=( a× b2)/2(V isvolume, a is the length of the tumor,b is the width of the tumor). (H) Cell proliferation assay of […]
as §5, §6

[7] = system: MIA PaCa-2 cells; experiment: Colony formation; conditions: 10 μM, than the control cells
Method: as §7, §8, §5, §6

With CC[C@H](C)[C@H](N)C(=O)N[C@@H](Cc1ccc(O)cc1)C(=O)N1C[C@H](O)C[C@H]1C(=O)N[C@@H](C)C(=O)N[C@@H](CC(C)C)C(=O)NCCCCCC(=O)N[C@@H](CCCCN)C(=O)N[C@@H](CC(=O)O)C(=O)N[C@H](C(=O)N[C@@H](CC(C)C)C(=O)N[C@@H](CO)C(=O)N[C@@H](CCC(=O)O)C(=O)N[C@@H](CCCCN)C(=O)N[C@@H](CCC(=O)O)C(=O)N[C@@H](CCCCN)C(=O)N[C@@H](CCCCN)C(=O)N[C@@H](CC(C)C)C(=O)N[C@@H](CCC(=O)O)C(=O)N[C@@H](CCC(=O)O)C(=O)N[C@@H](Cc1ccc(O)cc1)C(=O)N[C@@H](CCCCN)C(=O)N[C@@H](CCC(N)=O)C(=O)N[C@@H](CCCCN)C(=O)N[C@@H](CC(C)C)C(=O)N[C@@H](C)C(=O)N[C@@H](CCCNC(=N)N)C(=O)N[C@H](C(=O)N[C@@H](CCCNC(=N)N)C(=O)N[C@@H](CCCNC(=N)N)C(=O)N[C@@H](CCCNC(=N)N)C(=O)N[C@@H](CCCNC(=N)N)C(=O)N[C@@H](CCCCN)C(=O)O)C(C)C)C(C)C [PRTC] (H-IY[Hyp]AL[Ahx]KDVLSEKEKKLEEYKQKLARVRRRRK-OH; N-terminus and C-terminus assumed) the cell permeability [1] was “strong cell permeability”, the “CREPT protein level upon different dosages” value [2] was “dramatically decreased” and the “CREPT protein level upon different dosages” value [3] was “dramatically decreased”. For the same compound, the cell proliferation [4] was “dramatically inhibited”, the “cell proliferation of a normal pancreatic epithelial cell line” value [5] was “failed to influence; also recorded: failed to inhibit” and the colony formation [6] was “fewer colonies”. For the same compound, the colony formation [7] was “fewer colonies”.
